Results taken from the Biogen ADME set (Fang et al. 2023).
Values after ≈ are worked out from the molar mass of the structure shown.

Settings: for aqueous solubility: pH 6.8

Structure (SMILES)	MDR1-MDCK efflux ratio	intrinsic clearance, human liver microsomes [mL/min/kg]	intrinsic clearance, rat liver microsomes [mL/min/kg]	aqueous solubility [µg/mL]	fraction unbound, human plasma	fraction unbound, rat plasma
NC(=O)c1ccccc1NC(=O)CN1CCCC(c2nc3ccccc3o2)C1 (configuration not stated)	8	126	827	10 (≈ 26.4 µM)	–	–
O=C(Nc1ccc(Cl)nc1)NC1CCN(C2CCCC2)CC1	20.9	≤ 4.74	≤ 10.7	–	–	–
Nc1ccc(Nc2ncc3cnn(C4CCCCCC4)c3n2)cn1	–	82.2	216	–	–	–
CC(C)(C)c1cnc(CN2CCC(=O)Nc3cc(F)ccc32)o1	1.92	98.6	950	–	–	–
Cn1nc(C2CC2)c2[nH]c(-c3cccc(CN4CCOCC4)c3)nc21	52	18.8	244	49.4 (≈ 147 µM)	–	–
O=C(Nc1ccc2c3c(cccc13)CC2)c1ccc(-n2cncn2)cc1	0.473	–	–	0.18 (≈ 0.529 µM)	–	–
O=c1c2c(C(F)(F)F)cccc2ncn1CCc1ncc[nH]1	15.6	10.7	257	–	–	–
CCOC(=O)c1cccnc1SCc1cccnc1	0.646	293	1260	–	–	–
Cc1cccc(N2CCN(C(=O)c3cncnc3C(C)C)CC2)c1	0.882	144	1500	73.9 (≈ 228 µM)	–	–
CCOc1cc(CC(=O)N[C@@H](CC(C)C)c2ccccc2N2CCCCC2)ccc1C(=O)O	28.7	38.2	218	–	0.0128	0.00864
COc1cc2c(cc1OC)-c1cc3ccc(OC)c(OC)c3c[n+]1CC2	22.5	≤ 4.74	23.4	54.1	–	–
O=C(Cc1cccc2ccccc12)NCc1ccc(N2CCCC2=O)cc1	–	–	–	14.1 (≈ 39.4 µM)	–	–
CC(=O)NCc1ncc(-c2ccccc2C(=O)O)cn1	–	≤ 4.74	≤ 10.7	59.4 (≈ 219 µM)	–	–
CC(C)NS(=O)(=O)c1ccc2c(c1)oc(=O)c1cc(S(=O)(=O)NC(C)C)ccc12	–	–	–	0.47 (≈ 1.07 µM)	–	–
Cc1ccc2[nH]c(C3CCN(C)CC3)nc2c1	2.88	88.3	685	57.3 (≈ 250 µM)	–	–
CC1(C)[C@H]2CC=C(CN3CCC4(CCC(=O)N4)CC3)[C@@H]1C2	0.825	≤ 4.74	196	–	–	–
NC(=O)Cc1nc(-c2ccc(Cl)cc2Cl)cs1	–	–	–	41 (≈ 143 µM)	–	–
COc1cccc(CN(C)c2ncnc3c2CN(C)CC3)c1	0.754	18.6	183	57.7 (≈ 193 µM)	–	–
CSc1ccc(C)c(C(=O)NCCN2CCC(C)CC2)c1	0.841	39.6	1750	–	–	–
Cc1nnnn1CCCc1ccccc1	–	–	–	5.67 (≈ 28 µM)	–	–
CCS(=O)(=O)N1CC(CC#N)(n2cc(-c3ncnc4[nH]ccc34)cn2)C1	202	≤ 4.74	19.2	–	0.239	1

Structure (SMILES)	MDR1-MDCK efflux ratio	intrinsic clearance, human liver microsomes [mL/min/kg]	intrinsic clearance, rat liver microsomes [mL/min/kg]	aqueous solubility [µg/mL]	fraction unbound, human plasma	fraction unbound, rat plasma
Cc1cccnc1CNc1ccc(C#N)cc1F	0.524	32.9	161	36 (≈ 149 µM)	–	–
c1cc(-c2nnc(NCc3cncs3)o2)ccn1	1.9	≤ 4.74	91.4	–	–	–
COCc1noc(-c2ccc(-c3cc(C)cc(C)c3)nc2)n1	0.295	–	–	0.21 (≈ 0.711 µM)	–	–
CCOC(=O)c1ccc(NC(=O)Cn2cnc3ccccc32)cc1	4.28	7.03	521	18.4 (≈ 56.9 µM)	–	–
Cc1nc(C(C)C)sc1C(=O)Nc1nc(C(C)(C)C)cs1	0.306	27.8	398	11.8 (≈ 36.4 µM)	–	–
CCc1oc2c(-n3cnnc3)cccc2c1C	0.587	111	169	22.6 (≈ 99.4 µM)	–	–
CCOC(=O)c1ccc(OCC(=O)c2c[nH]c3ccccc23)cc1	0.456	–	–	0.69 (≈ 2.13 µM)	–	–
O=C(c1ccc2c(c1)OCO2)N1CCC(c2n[nH]c(C3CC3)n2)CC1	62.7	≤ 4.74	44.6	27 (≈ 79.4 µM)	–	–
CCCCCCCCc1ccc(CC[C@](N)(CO)COP(=O)(O)O)cc1	–	7.61	–	–	–	–
Brc1cnc(N2CCCN(c3ccccc3)CC2)nc1	–	121	5670	–	–	–
CCCc1cc(CNS(=O)(=O)c2cc(-c3cnc(C)o3)ccc2C)on1	7.7	392	2500	–	–	–
CN(C)c1ccc2c(c1)OCCN2C(=O)NCc1cccnc1	2.66	23.6	746	48.1 (≈ 154 µM)	–	–
CCOc1cccc(C(=O)Nc2ccc3c(c2)CCC(=O)N3C)c1	–	12.2	53.6	9.14 (≈ 28.2 µM)	–	–
COc1cc2nc(CN3CCC(CO)CC3)[nH]c(=O)c2cc1OC	29	≤ 4.74	≤ 10.7	–	–	–
CC(C)(C)OC(=O)N1CCNC(=O)C1	–	–	–	34.3 (≈ 171 µM)	–	–
CCN(CC)C(=O)c1ccc(NC(C)=O)cc1	1.95	≤ 4.74	25.6	34.6 (≈ 148 µM)	–	–
Cc1noc(-c2ccc(NC(=O)Cc3ccccc3)cc2)n1	0.573	7.82	57.1	7.94 (≈ 27.1 µM)	–	–
Cc1ccccc1CSc1ccc(-c2ccccn2)nn1	0.589	95.6	537	1.75 (≈ 5.96 µM)	–	–
CN1CCN(c2ccc3nc(-c4cc(C(C)(C)C)c(OCCCC(=O)NCCCN=[N+]=[N-])c(C(C)(C)C)c4)[nH]c3c2)CC1	–	177	212	–	–	–
CC(C)(C)C(=O)N1CCC(CN(CC(N)=O)C2CCCC2)CC1	26.6	29.8	1410	–	–	–
Cc1[nH]nc(CCC(=O)NCCCOC2CCCC2)c1C	14.4	33.6	2410	–	–	–

Structure (SMILES)	MDR1-MDCK efflux ratio	intrinsic clearance, human liver microsomes [mL/min/kg]	intrinsic clearance, rat liver microsomes [mL/min/kg]	aqueous solubility [µg/mL]	fraction unbound, human plasma	fraction unbound, rat plasma
CN(C)C(=O)CCNc1ccnc2ccc(Cl)cc12	–	6.56	73.1	–	–	–
CSc1ccc(C(=O)Nc2cccc(C(=O)NCC(C)C)c2)cc1	1.59	119	2660	–	–	–
CC(C(=O)Nc1ccccc1)N1CCCN(c2nccs2)CC1 (configuration not stated)	0.926	460	2020	37.1 (≈ 112 µM)	–	–
O=c1[nH]c2cc3ccccc3c(=O)n2c2sc3c(c12)CCCC3	–	–	–	15.2 (≈ 47 µM)	–	–
Cc1csc(Cc2nc(-c3ccc(O)cc3)no2)n1	0.531	15.1	288	–	–	–
O=C(NCC1CCC1)c1ccc(-n2ccnc2)nn1	0.616	8.32	50.3	34.1 (≈ 133 µM)	–	–
Cc1cccc(OCC(=O)Nc2ccn(C)n2)c1	–	21.1	479	43.5 (≈ 177 µM)	–	–
Cc1ccc(CCNC(=O)N2CC(C)(C)OC(C)(C)C2)cn1	22.9	6.58	76.4	41.1 (≈ 135 µM)	–	–
COc1ccccc1-n1cc(CNC(=O)N(C)Cc2c(C)nn(C)c2C)cn1	54.7	75.5	511	–	–	–
O=C(CC(=O)N1CCCC1)N1CCCC1	2.82	≤ 4.74	≤ 10.7	30.7 (≈ 146 µM)	–	–
Cc1ccc(OCCCC(=O)N2CCC(n3c(=O)[nH]c4ccccc43)CC2)cc1	–	123	1540	–	–	–
Clc1cccc(Cl)c1Cc1n[nH]c(CCCn2cccn2)n1	13.3	99.9	581	–	–	–
CC(C)n1c(=O)cc(N[C@@H](C)c2ccccc2)[nH]c1=O	58.2	≤ 4.74	30.4	–	–	–
Cc1cc(Nc2ccccn2)cc(C2CCCN(CC(=O)Nc3ncc(C)s3)C2)n1 (configuration not stated)	36.3	59.6	956	65.5 (≈ 155 µM)	–	–
COc1ccc(/C=C/C(=O)c2c(C)nc3ccccc3c2N)cc1	0.197	182	1190	39.6 (≈ 124 µM)	–	–
Cn1ccc(C(=O)N2CCCC(c3cccc(-c4cccc(Cl)c4)n3)C2)n1 (configuration not stated)	0.822	63	669	26.7 (≈ 70.1 µM)	–	–
O=C(NCC1CC1)c1ccc(-n2ccnc2)nc1	1.08	≤ 4.74	23.2	45.2 (≈ 186 µM)	–	–
Cn1c(-c2n[nH]c3c2CCCC3)nnc1N1CCC2(CNC(=O)C2)C1 (configuration not stated)	5.01	≤ 4.74	–	–	0.621	–
COCC(C)(C)CNC(=O)C1(Cn2cccn2)CC1	–	13	188	–	–	–
